Results reported in patent US20240270762A1, “PENICILLIN-BINDING PROTEIN INHIBITORS” (priority 2021, published 2024).
Converted amounts (≈) assume the structure as drawn.

Columns and labels:
A. baumannii ATCC 19606 = assay: microbe, parasite or virus in culture; format: cell-based; conditions: Acinetobacter baumannii, ATCC19606, read-out: MIC, A. baumannii ATCC 19606
[1] = system: P. aeruginosa (ΔmexAB-oprM); assay: Broth microdilution MIC in CAMHB; format: cell-based; conditions: Pseudomonas aeruginosa; read-out: MIC P. aeruginosa ΔmexAB-oprM
K. pneumoniae SI-117 = assay: microbe, parasite or virus in culture; format: cell-based; conditions: Klebsiella pneumoniae, SI117, read-out: MIC K. pneumoniae SI-117
E. coli D22 = assay: microbe, parasite or virus in culture; format: cell-based; conditions: Escherichia coli, D22, read-out: MIC E. coli D22
N. gonorrhoeae WHO G = assay: Liquid broth MIC in Fastidious broth; conditions: Neisseria gonorrhoeae, read-out: Minimum Inhibitory Concentration (MIC), N. gonorrhoeae WHO G
N. gonorrhoeae WHO M = assay: Liquid broth MIC in Fastidious broth; conditions: Neisseria gonorrhoeae, read-out: Minimum Inhibitory Concentration (MIC), N. gonorrhoeae WHO M
N. gonorrhoeae CDC-0197 = assay: Liquid broth MIC in Fastidious broth; conditions: Neisseria gonorrhoeae, CDC0197, read-out: Minimum Inhibitory Concentration (MIC), N. gonorrhoeae CDC-0197
N. gonorrhoeae FA1090 = assay: Liquid broth MIC in Fastidious broth; conditions: Neisseria gonorrhoeae, FA1090, read-out: Minimum Inhibitory Concentration (MIC), N. gonorrhoeae FA 1090
N. gonorrhoeae WHO X = assay: Liquid broth MIC in Fastidious broth; conditions: Neisseria gonorrhoeae, read-out: Minimum Inhibitory Concentration (MIC), N. gonorrhoeae WHO X
N. gonorrhoeae WHO L = assay: Liquid broth MIC in Fastidious broth; conditions: Neisseria gonorrhoeae, read-out: Minimum Inhibitory Concentration (MIC), N. gonorrhoeae WHO L
P. aeruginosa ATCC 35151 = assay: microbe, parasite or virus in culture; format: cell-based; conditions: Pseudomonas aeruginosa, ATCC35151, read-out: MIC P. aeruginosa ATCC 35151
[2] = system: N. gonorrhoeae ATCC 49226; assay: Liquid broth MIC in Fastidious broth; conditions: Neisseria gonorrhoeae, ATCC49226, read-out: Minimum Inhibitory Concentration (MIC), N. gonorrhoeae ATCC 49226
K. pneumoniae 848844 = assay: microbe, parasite or virus in culture; format: cell-based; conditions: Klebsiella pneumoniae, 848844, read-out: MIC K. pneumoniae 848844
E. coli AG100 = assay: microbe, parasite or virus in culture; format: cell-based; conditions: Escherichia coli, AG100, read-out: MIC E. coli AG100
[3] = target: T1, PBP3 from Escherichia coli (K-12) (Escherichia coli, UniProt P0AD68); assay: Bocillin-FL fluorescence polarization competition binding, E. coli PBP3
T1 construct: made in house
T1 sequence (P0AD68 1-577): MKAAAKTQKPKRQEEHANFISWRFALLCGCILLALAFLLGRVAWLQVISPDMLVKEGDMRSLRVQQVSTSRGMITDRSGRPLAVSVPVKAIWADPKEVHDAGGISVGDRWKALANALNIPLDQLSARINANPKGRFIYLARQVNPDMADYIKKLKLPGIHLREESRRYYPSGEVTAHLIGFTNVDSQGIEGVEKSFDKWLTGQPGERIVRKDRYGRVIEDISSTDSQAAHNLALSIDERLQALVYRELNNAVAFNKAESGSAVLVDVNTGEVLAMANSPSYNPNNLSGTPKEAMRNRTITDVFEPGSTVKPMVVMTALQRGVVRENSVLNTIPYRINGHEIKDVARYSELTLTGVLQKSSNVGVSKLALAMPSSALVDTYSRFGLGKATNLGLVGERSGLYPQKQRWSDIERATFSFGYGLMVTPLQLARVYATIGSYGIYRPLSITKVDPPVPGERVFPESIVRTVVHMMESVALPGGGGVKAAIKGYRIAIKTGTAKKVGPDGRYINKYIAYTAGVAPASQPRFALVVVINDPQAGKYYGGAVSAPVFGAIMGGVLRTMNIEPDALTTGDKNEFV
How it was run: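 Purified PBP was preincubated with inhibitor (E. coli PBP3 1.5 μM, 30 min; P. aeruginosa PBP3 0.75 μM, A. baumannii PBP3 0.2 μM and PBP1a 1 μM, 15 min), then Bocillin-FL (0.1 μM; 0.05 μM for PBP1a) added and FP read up to 60 min. EC50 = 50% loss of bound probe.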

E. coli AG100A = assay: Broth microdilution MIC in CAMHB; format: cell-based; conditions: Escherichia coli, read-out: MIC E. coli AG100A

SMILES	MIC (A. baumannii ATCC 19606) [µg/mL]	MIC [1] [µg/mL]	MIC (K. pneumoniae SI-117) [µg/mL]	MIC (E. coli D22) [µg/mL]	MIC (N. gonorrhoeae WHO G) [µg/mL]	MIC (N. gonorrhoeae WHO M) [µg/mL]	MIC (N. gonorrhoeae CDC-0197) [µg/mL]	MIC (N. gonorrhoeae FA1090) [µg/mL]	MIC (N. gonorrhoeae WHO X) [µg/mL]	MIC (N. gonorrhoeae WHO L) [µg/mL]	MIC (P. aeruginosa ATCC 35151) [µg/mL]	MIC [2] [µg/mL]	MIC (K. pneumoniae 848844) [µg/mL]	MIC (E. coli AG100) [µg/mL]	EC50 [3] [µM]	MIC (E. coli AG100A) [µg/mL]
O=C(NC(C(=O)N[C@H]1Cc2cccc(C(=O)O)c2OB1O)c1ccc(P(=O)(O)O)cc1)c1ccc(Cl)cn1 (stereo partly drawn) [Example 184, (3R)-3-(2-(5-chloropicolinamido)-2-(4-phosphonophenyl)acetamido)-2-hydroxy-3,4-dihydro-2H-benzo[e][1,2]oxaborinine-8-carboxylic acid]	> 128	> 128	> 128	8 to 16 (≈ 14.3 to 28.6 µM)	< 1	< 1	< 1	< 1	4 to 8 (≈ 7.15 to 14.3 µM)	4 to 8 (≈ 7.15 to 14.3 µM)	2 to 4 (≈ 3.57 to 7.15 µM)	< 1	> 128	> 128	< 10	32 to 64 (≈ 57.2 to 114 µM)
NC(=O)c1ccc(C(=O)NC(C(=O)N[C@H]2Cc3cccc(C(=O)O)c3OB2O)c2ccc(P(=O)(O)O)cc2)nc1 (stereo partly drawn) [Example 188, (3R)-3-(2-(5-carbamoylpicolinamido)-2-(4-phosphonophenyl)acetamido)-2-hydroxy-3,4-dihydro-2H-benzo[e][1,2]oxaborinine-8-carboxylic acid]	> 128	32 to 64 (≈ 56.3 to 113 µM)	> 128	8 to 16 (≈ 14.1 to 28.2 µM)	< 1	< 1	1 to 2 (≈ 1.76 to 3.52 µM)	< 1	4 to 8 (≈ 7.04 to 14.1 µM)	4 to 8 (≈ 7.04 to 14.1 µM)	8 to 16 (≈ 14.1 to 28.2 µM)	< 1	> 128	> 128	10 to 50	> 128
CCN1CCN(C(=O)NC(C(=O)N[C@H]2Cc3cccc(C(=O)O)c3OB2O)c2ccc(S(=O)(=O)O)cc2)C(=O)C1=O (stereo partly drawn) [Example 189, (3R)-3-(2-(4-ethyl-2,3-dioxopiperazine-1-carboxamido)-2-(4-sulfophenyl)acetamido)-2-hydroxy-3,4-dihydro-2H-benzo[e][1,2]oxaborinine-8-carboxylic acid]	> 128	8 to 16 (≈ 13.6 to 27.2 µM)	> 128	2 to 4 (≈ 3.4 to 6.8 µM)	< 1	< 1	1 to 2 (≈ 1.7 to 3.4 µM)	< 1	4 to 8 (≈ 6.8 to 13.6 µM)	4 to 8 (≈ 6.8 to 13.6 µM)	< 1	< 1	> 128	32 to 64 (≈ 54.4 to 109 µM)	10 to 50	8 to 16 (≈ 13.6 to 27.2 µM)
